Values quoted from earlier work in patent US20140194400A1, “Nasal Pharmaceutical Formulation” (Meda Pharma GmbH & Co., Kg, priority 2011, published 2014).

oral absorption: about 1%
SMILES: C[C@@H]1C[C@H]2[C@@H]3C[C@H](F)C4=CC(=O)C=C[C@]4(C)[C@@]3(F)[C@@H](O)C[C@]2(C)[C@@]1(O)C(=O)SCF [fluticasone]
